Source: the NIST ThermoML archive (doi:10.1021/je700406p)

Assay: wn = mass fraction of the nth substance listed
Settings: Liquid, Vibrating tube method

CC(C)(N)CO [2-amino-2-methylpropan-1-ol] + O
Settings | mass density [kg/m3]
332.01 K, 17000 kPa, w1 = 0.2821 | 982.5
332.01 K, 17987 kPa, w1 = 0.2821 | 982.9
332.01 K, 18991 kPa, w1 = 0.2821 | 983.3
332.01 K, 19984 kPa, w1 = 0.2821 | 983.7
332.01 K, 20986 kPa, w1 = 0.2821 | 984.1
332.99 K, 503 kPa, w1 = 0.1997 | 978.2
332.99 K, 1000 kPa, w1 = 0.1997 | 978.5
332.99 K, 2000 kPa, w1 = 0.1997 | 978.7
332.99 K, 3000 kPa, w1 = 0.1997 | 979.2
332.99 K, 4000 kPa, w1 = 0.1997 | 979.6
332.99 K, 5001 kPa, w1 = 0.1997 | 979.9
332.99 K, 6000 kPa, w1 = 0.1997 | 980.4
332.99 K, 7001 kPa, w1 = 0.1997 | 980.8
332.99 K, 8001 kPa, w1 = 0.1997 | 981.2
332.99 K, 9009 kPa, w1 = 0.1997 | 981.5
332.99 K, 10003 kPa, w1 = 0.1997 | 982
332.99 K, 11001 kPa, w1 = 0.1997 | 982.3
332.99 K, 12000 kPa, w1 = 0.1997 | 982.8
332.99 K, 13000 kPa, w1 = 0.1997 | 983.2
332.99 K, 14000 kPa, w1 = 0.1997 | 983.6
332.99 K, 14999 kPa, w1 = 0.1997 | 984
332.99 K, 16001 kPa, w1 = 0.1997 | 984.3
332.99 K, 17001 kPa, w1 = 0.1997 | 984.8
332.99 K, 18006 kPa, w1 = 0.1997 | 985.2
332.99 K, 19001 kPa, w1 = 0.1997 | 985.5
332.99 K, 20029 kPa, w1 = 0.1997 | 985.9
332.99 K, 21005 kPa, w1 = 0.1997 | 986.3
332.99 K, 22004 kPa, w1 = 0.1997 | 986.7
332.99 K, 23000 kPa, w1 = 0.1997 | 987
332.99 K, 24008 kPa, w1 = 0.1997 | 987.4
333.04 K, 1029 kPa, w1 = 0.4976 | 961.9
333.04 K, 1994 kPa, w1 = 0.4976 | 962.4
333.04 K, 3005 kPa, w1 = 0.4976 | 962.8
333.04 K, 4012 kPa, w1 = 0.4976 | 963.3
333.04 K, 4995 kPa, w1 = 0.4976 | 963.7
333.04 K, 5995 kPa, w1 = 0.4976 | 964.1
333.04 K, 7056 kPa, w1 = 0.4976 | 964.6
333.04 K, 7994 kPa, w1 = 0.4976 | 965
333.04 K, 8994 kPa, w1 = 0.4976 | 965.5
333.04 K, 9997 kPa, w1 = 0.4976 | 965.9
333.04 K, 10996 kPa, w1 = 0.4976 | 966.3
333.04 K, 11991 kPa, w1 = 0.4976 | 966.7
333.04 K, 12988 kPa, w1 = 0.4976 | 967.2
333.04 K, 13992 kPa, w1 = 0.4976 | 967.6
333.04 K, 14999 kPa, w1 = 0.4976 | 968
333.04 K, 15982 kPa, w1 = 0.4976 | 968.4
333.04 K, 16996 kPa, w1 = 0.4976 | 968.9
333.04 K, 17988 kPa, w1 = 0.4976 | 969.3
333.04 K, 18986 kPa, w1 = 0.4976 | 969.7
333.04 K, 19987 kPa, w1 = 0.4976 | 970.1
333.04 K, 21093 kPa, w1 = 0.4976 | 970.6
333.05 K, 1028 kPa, w1 = 0.4002 | 970.4
333.05 K, 1998 kPa, w1 = 0.4002 | 970.8
333.05 K, 3001 kPa, w1 = 0.4002 | 971.2
333.05 K, 4010 kPa, w1 = 0.4002 | 971.6
333.05 K, 5003 kPa, w1 = 0.4002 | 972.1
333.05 K, 5997 kPa, w1 = 0.4002 | 972.5
333.05 K, 7000 kPa, w1 = 0.4002 | 972.9
333.05 K, 8010 kPa, w1 = 0.4002 | 973.3
333.05 K, 8996 kPa, w1 = 0.4002 | 973.7
333.05 K, 9998 kPa, w1 = 0.4002 | 974.2
333.05 K, 10998 kPa, w1 = 0.4002 | 974.6
333.05 K, 12011 kPa, w1 = 0.4002 | 975
333.05 K, 13000 kPa, w1 = 0.4002 | 975.4
333.05 K, 13987 kPa, w1 = 0.4002 | 975.8
